In patent publication US20110183978A1, “Phenylpyri(mi)dinylazoles” (Bayer CropScience AG, priority 2009, published 2011):
Where a name gives a salt, the structure may show the parent alone. Read-outs that look alike come from different tables or passages of the source.

What was measured:
[1] = test system: Botrytis cinerea; test: Example B: in vivo test on Botrytis cinerea (grey mould on cucumbers); details: cucumber plants sprayed 24 hours before inoculation, scored after 5-7 days, read-out: % Wirkungsgrad
Experimental: In Vivo Test on Botrytis Cinerea (Grey Mould on Cucumbers) An aqueous suspension of the active substance was prepared by homogenization of a mixture of acetone/Tween/dimethyl sulphoxide and subsequent dilution with water to the desired concentration. Cucumber plants (variety: Vert petit de Paris) are sown in cultivation dishes on a peat-pozzolanic earth substrate (50/50) at 18-20° C. and sprayed at the cotyledon stage Z11 with the aqueous suspension described above. As a control, plants are sprayed with an aqueous solution with no active substance. […] The spores are derived from a 15 day-old culture which are suspended in the following nutrient solution: • 20 g/l gelatine • 50 g/l D-fructose • 2 g/l NH4NO3 • 1 g/l KH2PO4 The inoculated cucumber plants are kept for 5-7 days in a climatic chamber at […] After 5-7 days they are scored in comparison with the control plants.

[2] = physchem
[3] = test system: Peronospora parasitica; test: Example A: in vivo test on Peronospora parasitica (downy mildew on white cabbage); details: Hyaloperonospora parasitica, 120 h, cabbage plants sprayed 24 hours before inoculation, scored after 5 days, read-out: % Wirkungsgrad
Outline: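 Protective spray test: inoculation with 50,000 spores/ml P. parasitica suspension followed 24 h after compound application to cotyledon-stage cabbage (variety Eminence). Plants kept moist at about 20 °C for 5 days and then rated versus controls sprayed without active substance.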

[4] = test system: Alternaria brassicae; test: Example C: in vivo test on Alternaria brassicae (leaf spot disease on radishes); details: 500 ppm; radish plants sprayed 24 hours before inoculation; scored after 6-7 days
Experimental: In Vivo Test on Alternaria Brassicae (Leaf Spot Disease on Radishes) An aqueous suspension of the active substance was prepared by homogenization of a mixture of acetone/Tween/dimethyl sulphoxide and subsequent dilution with water to the desired concentration. Radish plants (variety: Pernot) are sown in cultivation dishes on a peat-pozzolanic earth substrate (50/50) at 18-20° C. and sprayed at the cotyledon stage with the aqueous suspension described above. As a control, plants are sprayed with an aqueous solution with no active substance. After 24 hours, the plants are inoculated by spraying with an aqueous suspension of Alternaria brassicae spores (40,000 spores per ml). The spores are derived from a 12 to 13 day-old culture. The inoculated radish plants are incubated for 6-7 days at ca. 18° C. in a humid atmosphere. After 6-7 days they are scored in comparison with the control plants.

[5] = test system: Mycosphaerella graminicola; test: Example G: in vivo test on Mycosphaerella graminicola (wheat leaf blotch disease); details: Zymoseptoria tritici, wheat plants sprayed 24 hours before inoculation, scored after 21 to 28 days, read-out: % Wirkungsgrad
Experimental: In Vivo Test on Mycosphaerella Graminicola (Wheat Leaf Blotch Disease) An aqueous suspension of the active substance was prepared by homogenization of a mixture of acetone/Tween/dimethyl sulphoxide and subsequent dilution with water to the desired concentration. Wheat plants (variety: Scipion) are sown in cultivation dishes on a peat-pozzolanic earth substrate (50/50) at 12° C. and sprayed at the first-leaf stage (10 cm size) with the aqueous suspension described above. As a control, plants are sprayed with an aqueous solution with no active substance. After 24 hours the plants are inoculated by spraying with an aqueous suspension of Mycosphaerella graminicola spores (500,000 spores per ml). The spores are derived from a 7 day-old culture. […] After 21 to 28 days they are scored in comparison with the control plants.

[6] = test system: Sphaerotheca fuliginea; test: Example D: in vivo test on Sphaerotheca fuliginea (powdery mildew on cucumber); details: Podosphaera fuliginea, 288 h, cucumber plants sprayed 24 hours before inoculation, scored after 12 days, read-out: % Wirkungsgrad
Outline: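 Scoring took place 12 days after spore inoculation (100,000 spores/ml, at ca. 20/25° C., 60/70% RH) and was made against plants sprayed without active substance. Inoculation followed by 24 hours a spray of water-diluted acetone/Tween/DMSO compound suspension onto Z10 cotyledon-stage cucumbers.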

[7] = test system: Alternaria solani; test: Example M: in vivo test on Alternaria solani (leaf blotch disease/tomato/protective); details: 168 h, tomato, protective, 500 ppm active substance, assessed 7 days after inoculation, read-out: % Wirkungsgrad (activity level)
Outline: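 Alternaria solani infection on tomato scored 7 days post-inoculation. Before inoculation, young plants received a protective spray at the stated application dose; formulation was compound mixed with N,N-dimethylformamide and emulsifier, water-diluted.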

[8] = test system: Cochliobolus miyabeanus; test: Example X: in vivo test on Cochliobolus miyabeanus (brown spot disease, rice/protective); details: Bipolaris oryzae, 96 h, read-out: % Activity level
[9] = test system: Fusarium proliferatum; test: Example I: production of fumonisin FB1 by Fusarium proliferatum (microtitre plates); assay type: cell-based; details: 120 h
[10] = test system: Botrytis cinerea; test: Example P: in vivo test on Botrytis cinerea (gray mould on bean/protective); details: 48 h, bean, protective, 250 ppm active substance, assessed 2 days after inoculation, read-out: % Wirkungsgrad (activity level)
Outline: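 Infection blotch size on leaves was scored 2 days after placing 2 Botrytis-colonised agar pieces per leaf. Inoculation followed drying of a protective spray applied to young plants at the stated dosage. Spray was prepared by diluting compound with solvent and alkylaryl polyglycol ether emulsifier in water.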

[11] = test system: Fusarium graminearum; test: microbe, parasite or virus in culture; assay type: cell-based
[12] = test system: Plasmopara viticola; test: Example N: in vivo test on Plasmopara viticola (downy mildew, vine/protective); details: 144 h, vine, protective, assessment 6 days after inoculation, read-out: % Wirkungsgrad
Outline: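 Assessment of downy mildew on vines took place 6 days post-inoculation, after 1 day of moist incubation. Before infection, the young plants received a protective spray of compound emulsified with alkylaryl polyglycol ethers and diluted with water to the stated application rate.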

[13] = test system: Puccinia recondita; test: Example F: in vivo test on Puccinia recondita (wheat brown rust); details: 240 h, wheat plants sprayed 24 hours before inoculation, scored after 10 days, read-out: % Wirkungsgrad
Experimental: In Vivo Test on Puccinia Recondita (Wheat Brown Rust) An aqueous suspension of the active substance was prepared by homogenization of a mixture of acetone/Tween/dimethyl sulphoxide and subsequent dilution with water to the desired concentration. Wheat plants (variety: Scipion) are sown in cultivation dishes on a peat-pozzolanic earth substrate (50/50) at 12° C. and sprayed at the first-leaf stage (10 cm size) with the aqueous suspension described above. As a control, plants are sprayed with an aqueous solution with no active substance. After 24 hours the plants are inoculated by spraying with an aqueous suspension of Puccinia recondita spores (100,000 spores per ml). The spores are derived from a 10 day-old infected wheat crop and are suspended in water with 2.5 ml/l Tween. […] After 10 days they are scored in comparison with the control plants.

[14] = test system: Venturia inaequalis; test: Example O: in vivo test on Venturia inaequalis (apple scab/protective); details: 240 h, protective, assessment 10 days after inoculation, read-out: % Wirkungsgrad
Outline: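 Young plants received a preventive spray of compound formulated as an emulsifier-containing aqueous dilution at the given application rate, then were inoculated with apple scab fungus. Disease was scored 10 days post-inoculation.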

[15] = test system: Pyricularia oryzae; test: whole plant or invertebrate; assay type: in vivo; details: 120 h, read-out: % Activity level
[16] = test system: Aspergillus parasiticus; test: microbe, parasite or virus in culture; assay type: cell-based; details: 168 h
[17] = test system: Pyricularia grisea; assay type: in vivo; details: 500 ppm; rice plants sprayed 24 hours before inoculation; scored after 6 days
[18] = test system: Sphaerotheca fuliginea; test: Example L: in vivo test on Sphaerotheca fuliginea (powdery mildew on cucumber/protective); details: Podosphaera fuliginea, 168 h, cucumber, protective, assessment 7 days after inoculation, read-out: % Wirkungsgrad
Outline: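 Young cucumber plants sprayed at stated dosage with compound in DMF/alkylaryl polyglycol ether emulsifier diluted in water; inoculated with S. fuliginea spores one day later. Kept in greenhouse at 70% relative humidity, 23° C; protective activity assessed 7 days after inoculation.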

[19] = determination of the log P values by HPLC on a reverse phase column (C18), EEC-Directive 79/831 Annex V.A8
[20] = LogPA (logP of the stated pure compound or, in a mixture, of the main isomer, 1-substituted 3-aryl-1H-pyrazole)
[21] = Fusarium proliferatum growth, OD 620, 5 days, read-out: % Inhibition des Pilzwachstums bei 50 μM
[22] = Fusarium proliferatum, 5 days at 20° C., HPLC-MS/MS, read-out: % Inhibition der FB1 produktion bei 50 μM
[23] = 72 h, read-out: % Inhibition des Pilzwachstums bei 50 μM
[24] = 168 h, read-out: % Inhibition der DON/AcDON produktion bei 50 μM

4-[3-(4-fluorophenyl)-1-isobutyl-1H-pyrazol-4-yl]-N-isopropylpyrimidin-2-amine [[I-h-1]]
logP (pH 2.7) (pH 2.7): 1.81

CC(C)Cn1ncc(-c2ccncc2)c1-c1c(F)cccc1F [Compound 2]
pest or weed control at 500 ppm [1]: 74% | chromatographic logP [2, 20]: 1.86 | pest or weed control at 500 ppm [3]: 85% | % Activity level [4]: 77% | pest or weed control at 500 ppm [5]: 98% | pest or weed control at 500 ppm [6]: 93% | pest or weed control at 500 ppm [7]: 100%

CCC(C)n1cc(-c2ccncc2)c(-c2c(F)cccc2F)n1 (stereo not drawn) [Compound 3]
chromatographic logP [2, 20]: 1.82 | pest or weed control at 500 ppm [3]: 97% | % Activity level [4]: 88% | pest or weed control at 500 ppm [5]: 95% | pest or weed control at 500 ppm [6]: 93%

CC(C)n1ncc(-c2ccncc2)c1-c1c(F)cccc1F [Compound 10]
pest or weed control at 500 ppm [1]: 73% | chromatographic logP [2, 20]: 1.54 | pest or weed control at 500 ppm [3]: 85% | % Activity level [4]: 85% | pest or weed control at 500 ppm [5]: 95% | pest or weed control at 500 ppm [6]: 80%

COCC(=O)Nc1cc(-c2cn(C(C)C)nc2-c2ccc(F)cc2)ccn1 [Compound 40]
pest or weed control at 250 ppm [8]: 85% | inhibition at 50 µM [9, 21]: 98% | inhibition at 50 µM [9, 22]: 100% | pest or weed control at 250 ppm [10]: 100% | pest or weed control at 500 ppm [1]: 100% | inhibition at 50 µM [11, 23]: 100% | inhibition at 50 µM [11, 24]: 100% | pest or weed control at 100 ppm [12]: 72% | pest or weed control at 500 ppm [13]: 86% | chromatographic logP [2, 20]: 2.59 | pest or weed control at 100 ppm [14]: 97% | pest or weed control at 500 ppm [3]: 98% | pest or weed control at 250 ppm [15]: 95% | inhibition at 50 µM ([16]; 50 μM, 7 days at 20° C., read-out: Inhibition der Aflatoxin produktion bei 50 μM): 99% | inhibition at 50 µM ([16]; read-out: % Inhibition des Pilzwachstums bei 50 μM): 88% | pest or weed control at 500 ppm [5]: 81% | pest or weed control at 500 ppm [6]: 100%

CC(C)n1cc(-c2ccnc3ccccc23)c(-c2ccc(F)cc2)n1 [Compound 44]
inhibition at 50 µM [9, 21]: 33% | inhibition at 50 µM [9, 22]: 100% | pest or weed control at 500 ppm [1]: 71% | pest or weed control at 500 ppm [13]: 71% | chromatographic logP [2, 20]: 2.24 | pest or weed control at 500 ppm [3]: 78% | pest or weed control at 500 ppm [5]: 81% | pest or weed control at 500 ppm [6]: 98%

CC(C)Cn1cc(-c2ccnc3c2C(C)(C)C(=O)N3C)c(-c2ccc(F)cc2)n1 [Compound 148]
chromatographic logP [2, 20]: 3.68 | % Activity level [17]: 71%

C#CCn1nc(-c2ccc(F)cc2)c(-c2ccncc2)c1C [Compound 171]
pest or weed control at 250 ppm [10]: 84% | pest or weed control at 500 ppm [1]: 71% | pest or weed control at 500 ppm [13]: 94% | chromatographic logP ([2]; LogPA): 2.51 | pest or weed control at 500 ppm [3]: 91% | pest or weed control at 500 ppm [5]: 93% | pest or weed control at 500 ppm [6]: 100% | pest or weed control at 500 ppm [18]: 100% | pest or weed control at 500 ppm [7]: 95%

CCOC(=O)Nc1cc(-c2cn(CC(F)F)nc2-c2ccc(F)cc2)ccn1 [Compound 241]
chromatographic logP [19]: 2.45 | pest or weed control at 500 ppm [7]: 94%

CCOC(=O)Nc1cc(-c2cn(CC3CC3(Cl)Cl)nc2-c2ccc(F)cc2)ccn1 (stereo not drawn) [Compound 264]
chromatographic logP [19]: 3.37 | inhibition at 50 µM [11, 23]: 17% | inhibition at 50 µM [11, 24]: 99%

Fc1ccc(-c2n[nH]cc2-c2ccncc2)cc1 [[IX-1], 4-[3-(4-Fluorophenyl)-1H-pyrazol-4-yl]pyridine hydrochloride]
chromatographic logP ([19]; pH 2.7): 0.65

Cc1cc(F)ccc1-c1c(-c2ccncc2)cnn1C1CCCCO1 (stereo not drawn) [[X-5], 4-[5-(4-fluoro-2-methylphenyl)-1-(tetrahydro-2H-pyran-2-yl)-1H-pyrazol-4-yl]pyrid]
LogP (pH 2.3): 1.40

Cc1cc(-c2c(-c3ccncc3)cnn2C2CCCCO2)ccc1F (stereo not drawn) [[X-7], 4-[5-(4-fluoro-3-methylphenyl)-1-(tetrahydro-2H-pyran-2-yl)-1H-pyrazol-4-yl]pyrid]
LogP (pH 2.3): 1.47

CC(=O)Nc1ccc(-c2c(-c3ccncc3)cnn2C2CCCCO2)cc1 (stereo not drawn) [[X-13]]
LogP (pH 2.3): 0.97

CCC[CH2][Sn]([CH2]CCC)([CH2]CCC)[c]1c(-c2ccncc2)cnn1C1CCCCO1 (stereo not drawn) [[XI-1], 4-[1-(Tetrahydro-2H-pyran-2-yl)-5-(tributylstannyl)-1H-pyrazol-4-yl]pyridine]
chromatographic logP ([19]; pH 2.7): 5.09

c1cc(-c2cnn(C3CCCCO3)c2)ccn1 (stereo not drawn) [[XII-1], 4-[1-(Tetrahydro-2H-pyran-2-yl)-1H-pyrazol-4-yl]pyridine]
chromatographic logP ([19]; pH 2.7): 0.38

Mixture of 4-bromo-3-(4-fluorophenyl)-1-isopropyl-1H-pyrazole and 4-bromo-5-(4-fluoro-phenyl)-1-isopropyl-1H-pyrazole [[VI-1]]
logP (pH 2.7) (pH 2.7): 3.96 | logP (pH 2.7), minor isomer (pH 2.7): 3.68

N-Benzyl-4-[3-(4-fluorophenyl)-1-isopropyl-1H-pyrazol-4-yl]pyrimidin-2-amine [[I-f-1]]
logP (pH 2.7) (pH 2.7): 3.31
